Experimental data published in patent US20160244755A1, “TREATING DISEASES ASSOCIATED WITH PGC1-ALPHA BY MODULATING MICRORNAS MIR-130A AND MIR-130B” (ACADEMIA SINICA;, priority 2013, published 2016).
Entries after “also recorded” stand apart in the source; their conditions may differ. Like-named read-outs stand apart in the source and are kept apart here.

Columns and labels:
Format in all cases: cell-based, human
HepG2 cells = test: measurement of glucose production in cell culture; design: glucose production: dose or concentration left out as unconfirmed
Procedure: Rosiglitazone and GW9662 were from Sigma. HepG2 and Huh7 cells were seeded in 6-well tissue culture plates at 5×10, Quasdorff, M. et al. Journal of viral hepatitis 17, 527-536 (2010) cells/well. At 24 h post-transfection, Rosiglitazone or GW9662 in 0.1% DMSO was added to medium. Culture medium was changed ever two days before harvest.
The glucose level of HBV transgenic mice was measured using a kit of DRI-CHEM SLIDE GLU-PIII (FUJIFILM, JAPAN). Ten microliters of mouse serum was deposited on a FUJI DRI-CHEM SLIDE GLU-PIII. Glucose oxidase (GOD) catalyzes the oxidization of sample glucose to generate hydrogen peroxide which then reacts with dye precursors and forms red dye. The optical reflection density was measured at 505 nm by the FUJI DRI-CHEM analyzer and converted into the glucose concentration […]. For the measurement of glucose concentration in cell culture, HBV producing cells (HepG2 and Q7 cells) were treated with PPARγ antagonist, GW9662 at indicated concentrations. Twenty-four hours before glucose measurement, the medium was replaced with 1 ml of glucose-free DMEM, supplemented with 2 mM sodium pyruvate. After 16 hrs incubation, 50 μl of medium was collected and the glucose concentration (mM) was measured using the glucose colorimetric assay (Biovision).

miR-130a = miR-130a expression in PPARγ-expressing HepG2 cell lines (stem-loop qPCR); settings: stable PPARγ-expressing HepG2 cell lines, U6 snRNA internal control
Procedure: Rosiglitazone and GW9662 were from Sigma. […] At 24 h post-transfection, Rosiglitazone or GW9662 in 0.1% DMSO was added to medium. Culture medium was changed ever two days before harvest.
Briefly, 100 ng RNAs were reverse transcribed by specific stem-loop primer and further analyzed by Taqman real-time PCR assay using default setting. […] Data were analyzed by Applied Biosystems 7500 software V2.0.1.

[1] = system: 3′ UTR of PGC1α (NM_013261); test: luciferase reporter cotransfection assay, 3′ UTR of PGC1α; settings: for luciferase activity, reporter with 3′ UTR of PGC1α: reporter cotransfection assay
Source text: (§1) Assay for 3′ UTR or enhancer/promoter was as described previously. Chen, H. L., et al., PloS one 7, e34116 (2012).

PKLR mRNA = PKLR mRNA in stable miR-130a expressing cells (RT-qPCR)
Procedure: (§2) Briefly, 2 μg of total RNA was reverse transcribed into cDNA using random primers and High Capacity cDNA Reverse Transcription kit (Applied Biosystem) at 37° C. for 120 minutes. The cDNA product was then diluted 100 times for real-time PCR analysis using Power SYBR Green PCR master mix (Applied Biosystem), and the default condition in a 20 μl reaction volume by Applied Biosystems 7500 Real-Time PCR System. Data were analyzed by relative quantification methods (AACt methods) using 7500 software V2.0.1.
(§3) Approximately one million Huh7 and HepG2 cells were transiently transfected by 3 μg plasmid DNA (pSuper and pSuper-miR-130a) with Polyjet (SignaGen), followed by G418 selection for three weeks. The G418-resistant colonies were pooled together.

PPARγ mRNA = PPARγ mRNA in stable miR-130a expressing cell lines (Northern blot, RT-qPCR); settings: stable miR-130a expressing HepG2 cell lines
Procedure: as §2
(§4) HBV core particle-associated DNA, total cellular cytoplasmic RNA, and microRNA were analyzed by Northern blot as described previously. Chua, P. K., et al. Journal of virology 84, 2340-2351 (2010), Le Pogam, S., et al., Journal of virology 79, 1871-1887 (2005).
as §3

CEBPb = CEBPb protein in stable miR-130a expressing HepG2 cell lines (Western blot)
Procedure: (§5) Native agarose gel electrophoresis and Western blot for detecting HBV core particles were as described. Chua, P. K., et al. Journal of virology 84, 2340-2351 (2010),
as §3

glucokinase (GCK) = glucokinase (GCK) protein in stable miR-130a expressing HepG2 cells (Western blot)
Source text: (§6) Anti-HBc (Dako), anti-PPARγ (Santa Cruz), anti-GAPDH, anti-PKLR, anti-G6Pase, anti-tubulin, anti-adiponectin (GeneTex, Taiwan), anti-PGC1α (Origene), anti-PCK1 (Abnova), anti-GCK (Biovision), Secondary antibodies include mouse anti-rabbit-HRP, goat anti-mouse-HRP (GeneTex, Taiwan) and donkey anti-goat-HRP (Santa Cruz).
as §5, §3

adiponectin [2] = test: adiponectin protein in stable miR-130a expressing cells (Western blot)
Source text: as §6, §5, §3

G6Pase = G6Pase protein in miR-130a expressing hepatocytes (Western blot)
Source text: as §6, §5, §3

G6Pase mRNA = G6Pase mRNA in stable miR-130a expressing HepG2 cells (Northern blot)
Procedure: as §4, §3

PEPCK mRNA = PEPCK mRNA in stable miR-130a expressing HepG2 cells (Northern blot)
Procedure: as §4, §3

3′ UTR of PGC1α = test: compensatory mutagenesis luciferase cotransfection assay, PGC1α 3′UTR
Procedure: as §1
To distinguish between a direct and an indirect mechanism of miR-130a on reducing PGC1α mRNA, a reporter assay was performed using 3′UTR from either PPARγ or PGC1α. […] Next, compensatory mutations were introduced into the seed sequences of miR-130a and its evolutionarily conserved target site of PGC1α (FIG. 10). […] In a dose-dependent manner, miR-130a could reduce, while LNA-miR-130a could increase, the luciferase activity of a reporter containing the 3′UTR of PGC1α (FIG. 11).

SP1 = SP1 protein in stable miR-130a expressing HepG2 cell lines (Western blot)
Procedure: as §5, §3

HNF4 = HNF4 protein in stable miR-130a expressing HepG2 cell lines (Western blot)
Procedure: as §5, §3

adiponectin [3] = test: secreted adiponectin ELISA, miR-130a expressing cell lines
Procedure: The concentration of secreted adiponectin was measured by ELISA (Biovision). ELISA of HBsAg and HBeAg was from General Biologicals Co., Taiwan.
as §3

PEPCK = PEPCK protein in miR-130a expressing hepatocytes (Western blot)
Source text: as §6, §5, §3

PGC1α mRNA = PGC1α mRNA in stable miR-130a expressing cell lines (Northern blot, RT-qPCR); settings: stable miR-130a expressing HepG2 cell lines
Procedure: as §2, §4, §3

GCK mRNA = GCK mRNA in stable miR-130a expressing cells (RT-qPCR)
Procedure: as §2, §3

PPARα = PPARα protein in stable miR-130a expressing HepG2 cell lines (Western blot)
Procedure: as §5, §3

[4] = system: 3′ UTR of PPARγ (NM_005037); test: luciferase reporter cotransfection assay, 3′ UTR of PPARγ
Source text: as §1

pyruvate kinase (PKLR) = pyruvate kinase (PKLR) protein in stable miR-130a expressing cells (Western blot); settings: stable miR-130a expressing Huh? cells
Source text: as §6, §5, §3

PGC1α = PGC1α protein in stable miR-130a expressing cells (Western blot)
Source text: as §6, §5, §3

PPARγ = PPARγ protein in stable miR-130a expressing cells (Western blot)
Source text: as §6, §5, §3

O=C(Nc1ccccc1)c1cc([N+](=O)[O-])ccc1Cl [GW9662]
glucose production (HepG2 cells; HepG2 cells, irrespective of HBV-producing status): further increased; also recorded: increase | expression of miR-130a (miR-130a): not

miR-130a: human microRNA comprising CAGUGCAAUGUUAAAAGGGCAU (SEQ ID NO:1); expressed from pSuper-miR-130a in stable cell lines
PGC1α 3′UTR luciferase reporter activity with increasing amounts ([1]; dose response, co-transfection): reduce; also recorded: decreasing reporter activity in a dose response manner | luciferase activity, reporter with 3′ UTR of PGC1α [1]: functional interaction | luciferase activity, reporter with 3′ UTR of PGC1α ([1]; listed as MiR-130a): significantly reduced | PKLR specific mRNA level (PKLR mRNA): increased | PPARγ mRNA (PPARγ mRNA): reduction | glucose level (HepG2 cells; control vs miR-130a producing cells): No significant difference | protein level of CEBPb (CEBPb): No appreciable difference | glucokinase (GCK) protein level (glucokinase (GCK)): not reduced but increased; also recorded: increased level | adiponectin protein (adiponectin [2]): reduction | G6Pase protein expression (G6Pase): reductions; also recorded: Reduced | G6Pase mRNA expression (G6Pase mRNA): reductions; also recorded: reduced | PEPCK mRNA expression (PEPCK mRNA): reductions; also recorded: reduced | direct targeting of 3′ UTR of PGC1α by compensatory mutagenesis (3′ UTR of PGC1α; p<0.05): directly target | protein level of SP1 (SP1): No appreciable difference | protein level of HNF4 (HNF4): No appreciable difference | secreted adiponectin (adiponectin [3]): significantly reduced; also recorded: reduction | PEPCK protein expression (PEPCK): reductions; also recorded: Reduced | PGC1α mRNA (PGC1α mRNA): reduction | GCK specific mRNA level (GCK mRNA): increased | protein level of PPARα (PPARα): No appreciable difference | luciferase activity, reporter with 3′ UTR of PPARγ [4]: functional interaction | luciferase activity, reporter with 3′ UTR of PPARγ ([4]; listed as MiR-130a): significantly reduced | pyruvate kinase (PKLR) protein level (pyruvate kinase (PKLR)): not reduced but increased; also recorded: increased level | PGC1α protein (PGC1α): reduction | PPARγ protein (PPARγ): reduction

mutant miR-130a: miR-130a with compensatory mutations in the seed sequence, SEQ ID NO: 69 (CUGAGCAAUGUUAAAAGGGCAU; listed as RNA, chemistry not given here) [reference compound]
luciferase activity, mutant PGC1α 3′UTR target site (3′ UTR of PGC1α; combination of mutant miR-130a and mutant PGC1α, cotransfection): restore the inhibitory effect
